Laboratory results published in ChEMBL document CHEMBL5346927, “Discovery of a novel 1H-pyrazole- [3,4-b] pyridine-based lysine demethylase 5B inhibitor with potential anti-prostate cancer activity that perturbs the phosphoinositide 3-kinase/AKT pathway” (Eur J Med Chem, 2023).

Columns and labels:
[1] = molecular target: T1, Lysine-specific demethylase 5B (Homo sapiens, UniProt Q9UGL1); assay: Inhibition of KDM5B (unknown origin)
[2] = molecular target: T1, Lysine-specific demethylase 5B; assay: Inhibition of KDM5B (unknown origin) at 10 uM relative to control
[3] = system: LNCaP; assay: Antiproliferative activity against human LNCaP cells assessed as inhibition of cell proliferation incubated for 72 hrs by MTT assay; format: functional, cell-based
[4] = system: MCF7; assay: Antitumor activity against human MCF7 cells assessed as inhibition of cell proliferation incubated for 72 hrs by MTT assay; format: functional, cell-based; settings: MCF7, 72 h
[5] = system: MGC-803; assay: Antitumor activity against human MGC-803 cells assessed as inhibition of cell proliferation incubated for 72 hrs by MTT assay; format: functional, cell-based; settings: MGC-803, 72 h
[6] = system: DU-145; assay: Antiproliferative activity against human DU-145 cells assessed as inhibition of cell proliferation incubated for 72 hrs by MTT assay; format: functional, cell-based; settings: DU-145, 72 h
[7] = system: PC-3; assay: Antitumor activity against human PC-3 cells assessed as inhibition of cell proliferation incubated for 72 hrs by MTT assay; format: functional, cell-based; settings: PC-3, 72 h
[8] = system: HepG2; assay: Antitumor activity against human HepG2 cells assessed as inhibition of cell proliferation incubated for 72 hrs by MTT assay; format: functional, cell-based; settings: HepG2, 72 h

T1 sequence (Q9UGL1 whole entry): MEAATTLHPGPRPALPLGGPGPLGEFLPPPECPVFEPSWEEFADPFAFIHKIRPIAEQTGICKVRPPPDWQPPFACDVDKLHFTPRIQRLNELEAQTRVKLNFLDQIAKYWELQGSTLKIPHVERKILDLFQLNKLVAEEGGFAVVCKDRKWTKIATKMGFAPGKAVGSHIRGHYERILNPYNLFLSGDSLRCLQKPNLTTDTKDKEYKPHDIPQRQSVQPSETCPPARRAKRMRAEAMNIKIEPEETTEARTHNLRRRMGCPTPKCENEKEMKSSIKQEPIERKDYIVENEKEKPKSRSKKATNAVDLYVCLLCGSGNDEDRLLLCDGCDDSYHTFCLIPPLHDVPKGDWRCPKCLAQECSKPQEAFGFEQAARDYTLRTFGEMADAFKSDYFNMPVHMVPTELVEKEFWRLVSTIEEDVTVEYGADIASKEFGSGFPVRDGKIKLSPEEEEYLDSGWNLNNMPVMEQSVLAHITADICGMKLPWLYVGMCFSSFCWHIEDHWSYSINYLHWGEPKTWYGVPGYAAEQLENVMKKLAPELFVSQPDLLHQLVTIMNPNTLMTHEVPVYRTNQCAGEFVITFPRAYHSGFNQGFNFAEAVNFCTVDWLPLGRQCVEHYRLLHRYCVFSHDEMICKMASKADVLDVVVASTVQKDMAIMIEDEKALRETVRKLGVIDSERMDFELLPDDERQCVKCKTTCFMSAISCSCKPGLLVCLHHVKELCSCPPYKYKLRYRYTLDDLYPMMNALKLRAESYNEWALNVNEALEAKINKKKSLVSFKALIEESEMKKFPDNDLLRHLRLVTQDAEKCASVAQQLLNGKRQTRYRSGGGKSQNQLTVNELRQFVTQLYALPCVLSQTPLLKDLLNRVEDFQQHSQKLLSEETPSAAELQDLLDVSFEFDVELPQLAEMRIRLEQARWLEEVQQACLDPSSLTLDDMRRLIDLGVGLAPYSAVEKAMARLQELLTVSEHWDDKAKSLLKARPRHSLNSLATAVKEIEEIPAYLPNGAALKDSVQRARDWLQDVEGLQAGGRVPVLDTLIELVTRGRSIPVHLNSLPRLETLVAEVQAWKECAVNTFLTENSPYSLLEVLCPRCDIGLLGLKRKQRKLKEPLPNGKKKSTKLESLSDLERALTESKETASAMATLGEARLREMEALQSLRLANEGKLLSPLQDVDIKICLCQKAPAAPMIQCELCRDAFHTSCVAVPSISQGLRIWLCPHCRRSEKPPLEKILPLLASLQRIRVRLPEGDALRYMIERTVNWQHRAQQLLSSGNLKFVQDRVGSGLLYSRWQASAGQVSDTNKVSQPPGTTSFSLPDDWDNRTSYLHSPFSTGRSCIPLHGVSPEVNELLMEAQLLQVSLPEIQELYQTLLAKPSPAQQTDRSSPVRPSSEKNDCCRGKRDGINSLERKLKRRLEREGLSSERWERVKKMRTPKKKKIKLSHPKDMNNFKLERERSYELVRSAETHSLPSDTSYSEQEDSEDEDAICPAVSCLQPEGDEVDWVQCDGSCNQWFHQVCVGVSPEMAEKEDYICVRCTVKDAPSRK

| SMILES | IC50 [1] | inhibition [2] | other results |
| --- | --- | --- | --- |
| Cc1ccc(-n2ncc3c(C(=O)NCc4cn(-c5cccc(F)c5)nn4)cc(-c4ccc5ccccc5c4)nc32)cc1 | 5.26 µM | 71% | – |
| CN1CCN(CCNC(=O)c2cc(-c3ccc4ccccc4c3)nc3c2cnn3-c2ccc(Br)cc2)CC1 | > 10 µM | 46% | – |
| CN1CCN(CCNC(=O)c2cc(-c3ccccc3)nc3c2cnn3-c2cccc(Cl)c2)CC1 | > 10 µM | 6% | – |
| Cc1cccc(-n2ncc3c(C(=O)NCCN4CCN(C)CC4)cc(-c4ccccc4)nc32)c1 | > 10 µM | 14% | – |
| Cc1ccc(-n2ncc3c(C(=O)NCCN(C)C)cc(-c4ccc5ccccc5c4)nc32)cc1 | 5.42 µM | 64% | – |
| Cc1ccc(-n2ncc3c(C(=O)NCCN4CCCCC4)cc(-c4ccc5ccccc5c4)nc32)cc1 | > 10 µM | 40% | – |
| CN1CCN(CCNC(=O)c2cc(-c3ccccc3)nc3c2cnn3-c2ccc(Br)cc2)CC1 | > 10 µM | 44% | – |
| Cc1ccccc1-n1ncc2c(C(=O)NCCN3CCN(C)CC3)cc(-c3ccccc3)nc21 | 4.17 µM | 83% | – |
| O=C(O)CNC(=O)C(=O)O [N-OXALYLGLYCINE] | 920 µM | – | – |
| CN1CCN(CCNC(=O)c2cc(-c3ccc4ccccc4c3)nc3c2cnn3-c2ccc(C(F)(F)F)cc2)CC1 | > 10 µM | 33% | – |
| Cc1ccc(-n2ncc3c(C(=O)NCc4cn(Cc5ccccc5)nn4)cc(-c4ccc5ccccc5c4)nc32)cc1 | 3.93 µM | 72% | – |
| Cc1ccc(-n2ncc3c(C(=O)NCCN4CCN(C)CC4)cc(-c4ccc5ccccc5c4)nc32)cc1 | 1.35 µM | 79% | – |
| CC(C)n1ncc2c(C(=O)NCc3cn(Cc4ccccc4)nn3)cc(-c3ccc4ccccc4c3)nc21 | 7.7 µM | 57% | – |
| Cc1ccc(-n2ncc3c(C(=O)NCCN4CCCC4)cc(-c4ccc5ccccc5c4)nc32)cc1 | 7.35 µM | 58% | – |
| Cc1ccc(-n2ncc3c(C(=O)NCc4cn(-c5ccccc5)nn4)cc(-c4ccc5ccccc5c4)nc32)cc1 | 2.17 µM | 74% | – |
| CC(C)c1ccc(-n2ncc3c(C(=O)NCCN4CCN(C)CC4)cc(-c4ccc5ccccc5c4)nc32)cc1 | 3.08 µM | 86% | – |
| CN1CCN(CCNC(=O)c2cc(-c3ccccc3)nc3c2cnn3-c2ccccc2Cl)CC1 | > 10 µM | 21% | – |
| Cc1ccc(-n2ncc3c(C(=O)NCCN4CCN(C)CC4)cc(-c4ccccc4)nc32)cc1C | 3.69 µM | 79% | – |
| Cc1ccc(-n2ncc3c(C(=O)NCc4cn(-c5ccc(C)cc5C)nn4)cc(-c4ccc5ccccc5c4)nc32)cc1 | > 10 µM | 17% | – |
| Cc1ccc(-n2ncc3c(C(=O)Nc4ccccc4)cc(-c4ccc5ccccc5c4)nc32)cc1 | > 10 µM | -1% | – |
| Cc1ccc(-n2ncc3c(C(=O)NCc4cn(Cc5ccc(C(F)(F)F)cc5)nn4)cc(-c4ccc5ccccc5c4)nc32)cc1 | 6.97 µM | 58% | – |
| CN1CCN(CCNC(=O)c2cc(-c3ccccc3)nc3c2cnn3-c2ccccc2)CC1 | 0.749 µM | 93% | – |
| Cc1ccc(-n2ncc3c(C(=O)NC4CCCC4)cc(-c4ccc5ccccc5c4)nc32)cc1 | > 10 µM | 5% | – |
| Cc1ccccc1-n1ncc2c(C(=O)NCCN3CCN(C)CC3)cc(-c3ccc4ccccc4c3)nc21 | 3.34 µM | 86% | – |
| O=c1[nH]cc(F)c(=O)[nH]1 [FLUOROURACIL] | – | – | IC50 [3]: 7.93 µM; IC50 [4]: 15.1 µM; IC50 [5]: 10.1 µM; IC50 [6]: 8.58 µM; IC50 [7]: 8.41 µM |
| Cc1cccc(-c2cc(C(=O)NCCN3CCN(C)CC3)c3cnn(-c4ccccc4)c3n2)c1 | 2.81 µM | 67% | – |

| SMILES | IC50 [1] | inhibition [2] | other results |
| --- | --- | --- | --- |
| CC(C)c1ccc(-c2cc(C(=O)NCCN3CCN(C)CC3)c3cnn(-c4ccccc4)c3n2)cc1 | 0.132 µM | 87% | – |
| Cc1cc(C)cc(-n2ncc3c(C(=O)NCCN4CCN(C)CC4)cc(-c4ccccc4)nc32)c1 | > 10 µM | 20% | – |
| CC(C)c1ccc(-n2ncc3c(C(=O)NCCN4CCN(C)CC4)cc(-c4ccccc4)nc32)cc1 | 3.99 µM | 83% | – |
| CN1CCN(CCNC(=O)c2cc(-c3ccc(Cl)cc3)nc3c2cnn3-c2ccccc2)CC1 | > 10 µM | 43% | – |
| C#CNC(=O)c1cc(-c2ccc3ccccc3c2)nc2c1cnn2-c1ccc(C)cc1 | > 10 µM | 28% | – |
| Cc1ccc(-n2ncc3c(C(=O)NCc4cn(-c5ccc(F)cc5)nn4)cc(-c4ccc5ccccc5c4)nc32)cc1 | > 10 µM | 23% | – |
| CN1CCN(CCNC(=O)c2cc(-c3ccccc3)nc3c2cnn3-c2ccc(C(F)(F)F)cc2)CC1 | > 10 µM | 20% | – |
| CCc1ccc(-c2cc(C(=O)NCCN3CCN(C)CC3)c3cnn(-c4ccccc4)c3n2)cc1 | 0.376 µM | 83% | – |
| O=C(O)CCNc1cc(N2CCc3ccccc3CC2)nc(-c2ccccn2)n1 | – | – | IC50 [8]: 39.8 µM; IC50 [4]: 33.7 µM; IC50 [5]: 29.3 µM; IC50 [7]: 20.3 µM |
| Cc1ccc(-n2ncc3c(C(=O)NCc4cn(Cc5ccc(C#N)cc5)nn4)cc(-c4ccc5ccccc5c4)nc32)cc1 | 6.38 µM | 63% | – |
| O=C(NCc1cn(Cc2ccccc2)nn1)c1cc(-c2ccc3ccccc3c2)nc2c1cnn2-c1ccc(C(F)(F)F)cc1 | 6.27 µM | 63% | – |
| Cc1ccc(-n2ncc3c(C(=O)NCc4cn(-c5cccc(Br)c5)nn4)cc(-c4ccc5ccccc5c4)nc32)cc1 | 9.45 µM | 51% | – |
| Cc1ccc(-n2ncc3c(C(=O)NCc4cn(-c5ccc(C)c(C)c5)nn4)cc(-c4ccc5ccccc5c4)nc32)cc1 | 9.37 µM | 51% | – |
| Cc1cc(C)cc(-c2cc(C(=O)NCCN3CCN(C)CC3)c3cnn(-c4ccc5ccccc5c4)c3n2)c1 | > 10 µM | 35% | – |
| CN1CCN(CCNC(=O)c2cc(-c3ccccc3)nc3c2cnn3-c2ccc(Cl)cc2)CC1 | > 10 µM | 40% | – |
| Cc1ccc(-n2ncc3c(C(=O)NCCN4CCN(C)CC4)cc(-c4ccccc4)nc32)cc1 | 1.67 µM | 95% | – |
| Cc1ccc(-n2ncc3c(C(=O)Nc4cccnc4)cc(-c4ccc5ccccc5c4)nc32)cc1 | > 10 µM | -3% | – |
| CN1CCN(CCNC(=O)c2cc(-c3ccc(Br)cc3)nc3c2cnn3-c2ccccc2)CC1 | > 10 µM | 31% | – |
| Cc1ccc(-n2ncc3c(C(=O)NCc4cn(-c5ccc(I)cc5)nn4)cc(-c4ccc5ccccc5c4)nc32)cc1 | 6.58 µM | 58% | – |
| Cc1ccc(-n2ncc3c(C(=O)NCCN4CCN(C)CC4)cc(-c4ccc5ccccc5c4)nc32)cc1C | 1.94 µM | 89% | – |
| Cc1ccc(-c2cc(C(=O)NCCN3CCN(C)CC3)c3cnn(-c4ccccc4)c3n2)cc1 | 0.658 µM | 79% | – |
| Cc1cccc(-n2ncc3c(C(=O)NCCN4CCN(C)CC4)cc(-c4ccc5ccccc5c4)nc32)c1 | 9.43 µM | 53% | – |
| COc1ccc(-c2cc(C(=O)NCCN3CCN(C)CC3)c3cnn(-c4ccccc4)c3n2)cc1 | 0.237 µM | 88% | – |
| Cc1ccccc1-c1cc(C(=O)NCCN2CCN(C)CC2)c2cnn(-c3ccccc3)c2n1 | 6.15 µM | 60% | – |
| Cc1ccc(-n2ncc3c(C(=O)NCc4ccccc4)cc(-c4ccc5ccccc5c4)nc32)cc1 | > 10 µM | 27% | – |
